Where “and” joins values, the source holds several entries; their conditions need not be identical. Equal values may be shown once. Toxic doses and inconclusive results are not listed. How the source made its calls: active means survival T/C of 150% or more; inactive means T/C below 125% in these data. Numbered stars: 1 amine (or outer) side, 2 acyl side, 3 side chain; on linkers, the order of the positions; unused ones are H or OH. Bridge positions count the residues as written; N and C are the ends. Square brackets hold non-standard residues; d marks the D form. Peptide text beside a SMILES is read from it. I, II: the chains in the order shown. Actinocin(1to9) = Cc1c2oc3c(C)ccc(C(=O)[*:2])c3nc-2c(C(=O)[*:1])c(N)c1=O; NMeV = CN[CH](C(=O)O)C(C)C; Aze = O=C(O)[CH]1CCN1; Sar = CNCC(=O)O
Tested on: P388 leukemia ip, CD2F1 mice, survival T/C
Experiment: NCI In Vivo Anticancer Drug Screen. Data for tumor model P388 Leukemia (intraperitoneal) in CD2F1 (CDF1) mice
Settings: endpoint: median survival time, higher = longer survival
Method in brief: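 Mice carrying the transplanted tumor received test compound or vehicle. Survival was recorded in each group, and the value is the treated-group measurement divided by that of the vehicle-treated control group.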

[1] = dose: 6.25 mg/kg/injection, schedule: Q01DX005 (ip), vehicle: saline
[2] = dose: 12.5 mg/kg/injection, schedule: Q04DX003 (ip), vehicle: saline
[3] = dose: 25.0 mg/kg/injection, schedule: Q04DX003 (ip), vehicle: saline

Measured: T/C

OCCN1CCN(CC/C=C2/c3ccccc3Sc3ccc(Cl)cc32)CC1
inactive: dose: 0.39 mg/kg/injection, schedule: Q01DX005 (ip), vehicle: saline 100 % of control | dose: 0.78 mg/kg/injection, schedule: Q01DX005 (ip), vehicle: saline 100 % of control | dose: 1.56 mg/kg/injection, schedule: Q01DX005 (ip), vehicle: saline 105 % of control | [1] 123 % of control | [2] 118 % of control | [3] 122 % of control | dose: 33.0 mg/kg/injection, schedule: Q04DX003 (ip), vehicle: saline 90 % of control | dose: 50.0 mg/kg/injection, schedule: Q04DX003 (ip), vehicle: saline 90 % of control | dose: 75.0 mg/kg/injection, schedule: Q04DX003 (ip), vehicle: saline 100 % of control

CCOc1n[n+]([O-])c(Cl)cc1[N+](=O)[O-]
inactive: dose: 25.0 mg/kg/injection, schedule: Q01DX009 (ip), vehicle: saline with Tween-80 103 % of control | dose: 50.0 mg/kg/injection, schedule: Q01DX009 (ip), vehicle: saline with Tween-80 102 % of control | dose: 100.0 mg/kg/injection, schedule: Q01DX009 (ip), vehicle: saline with Tween-80 100 % of control

C=C(Cl)C(=NC(C)(C)C)Nc1ccccc1Cl
inactive: [1] 100 % of control | dose: 12.5 mg/kg/injection, schedule: Q01DX005 (ip), vehicle: saline 117 % of control | dose: 25.0 mg/kg/injection, schedule: Q01DX005 (ip), vehicle: saline 124 % of control | dose: 50.0 mg/kg/injection, schedule: Q01DX005 (ip), vehicle: saline 114 % of control and 120 % of control | dose: 100.0 mg/kg/injection, schedule: Q01DX005 (ip), vehicle: saline 118 % of control

CCCCCCCCCCCCCCC(O)c1ccccc1 (configuration not stated)
inactive: dose: 7.5 mg/kg/injection, schedule: Q01DX009 (ip), vehicle: Klucel (hydroxypropylcellulose) (HPC) 113 % of control | dose: 15.0 mg/kg/injection, schedule: Q01DX009 (ip), vehicle: Klucel (hydroxypropylcellulose) (HPC) 115 % of control | dose: 30.0 mg/kg/injection, schedule: Q01DX009 (ip), vehicle: Klucel (hydroxypropylcellulose) (HPC) 110 % of control

Clc1cc(CBr)c(CBr)cc1Cl
inactive: dose: 3.13 mg/kg/injection, schedule: Q01DX009 (ip), vehicle: saline with Tween-80 95 % of control | dose: 6.25 mg/kg/injection, schedule: Q01DX009 (ip), vehicle: saline with Tween-80 100 % of control | dose: 12.5 mg/kg/injection, schedule: Q04DX003 (ip), vehicle: saline with Tween-80 113 % of control | dose: 25.0 mg/kg/injection, schedule: Q04DX003 (ip), vehicle: saline with Tween-80 109 % of control

c1cnn(P2(n3cccn3)=NP(n3cccn3)(n3cccn3)=NP(n3cccn3)(n3cccn3)=NP(n3cccn3)(n3cccn3)=NP(n3cccn3)(n3cccn3)=NP(n3cccn3)(n3cccn3)=N2)c1
inactive: dose: 100.0 mg/kg/injection, schedule: Q01DX001 (ip), vehicle: saline with Tween-80 100 % of control | dose: 200.0 mg/kg/injection, schedule: Q01DX001 (ip), vehicle: saline with Tween-80 100 % of control | dose: 400.0 mg/kg/injection, schedule: Q01DX001 (ip), vehicle: saline with Tween-80 98 % of control

O=C1CSC(c2c(Cl)cccc2Cl)N1c1nncs1 (configuration not stated)
inactive: dose: 60.0 mg/kg/injection, schedule: Q01DX005 (ip), vehicle: saline with Tween-80 111 % of control | dose: 120.0 mg/kg/injection, schedule: Q01DX005 (ip), vehicle: saline with Tween-80 102 % of control | dose: 240.0 mg/kg/injection, schedule: Q01DX005 (ip), vehicle: saline with Tween-80 98 % of control

[C-]#[N+]C(C)Cc1ccccc1 (configuration not stated)
inactive: dose: 1.56 mg/kg/injection, schedule: Q04DX003 (ip), vehicle: saline 101 % of control | dose: 3.13 mg/kg/injection, schedule: Q04DX003 (ip), vehicle: saline 103 % of control | dose: 6.25 mg/kg/injection, schedule: Q04DX003 (ip), vehicle: saline 103 % of control | [2] 105 % of control | [3] 104 % of control

C[C@@H]1C[C@@H]2OC(=O)[C@]3(C)[C@H]2[C@@H](OC3(C)O)[C@]2(C)C(=O)C=C[C@@H]12 (some centres not stated)
inactive: dose: 4.25 mg/kg/injection, schedule: Q01DX009 (ip), vehicle: Klucel (hydroxypropylcellulose) (HPC) 104 % of control | dose: 8.5 mg/kg/injection, schedule: Q01DX009 (ip), vehicle: Klucel (hydroxypropylcellulose) (HPC) 102 % of control and 109 % of control | dose: 17.0 mg/kg/injection, schedule: Q01DX009 (ip), vehicle: Klucel (hydroxypropylcellulose) (HPC) 119 % of control and 120 % of control

CC(=O)O[C@]12C=C[C@H](O1)[C@@H]1C(=O)NC(=O)[C@@H]12
inactive: dose: 6.25 mg/kg/injection, schedule: Q04DX002 (ip), vehicle: saline 98 % of control | dose: 12.5 mg/kg/injection, schedule: Q04DX002 (ip), vehicle: saline 106 % of control | dose: 25.0 mg/kg/injection, schedule: Q04DX002 (ip), vehicle: saline 88 % of control

C(/C=C/c1cc2cc(C3=NCCN3)ccc2o1)=C\c1ccc(C2=NCCN2)cc1
inactive: dose: 100.0 mg/kg/injection, schedule: Q04DX003 (ip), vehicle: saline 114 % of control | dose: 200.0 mg/kg/injection, schedule: Q04DX003 (ip), vehicle: saline 119 % of control | dose: 400.0 mg/kg/injection, schedule: Q04DX003 (ip), vehicle: saline 118 % of control

CNC(=S)NCOCCOC(C)=O
inactive: dose: 60.0 mg/kg/injection, schedule: Q01DX005 (ip), vehicle: saline 98 % of control | dose: 120.0 mg/kg/injection, schedule: Q01DX005 (ip), vehicle: saline 102 % of control | dose: 240.0 mg/kg/injection, schedule: Q01DX005 (ip), vehicle: saline 102 % of control

Clc1cccc2nnc(Br)n12
inactive: dose: 50.0 mg/kg/injection, schedule: Q01DX001 (ip), vehicle: Klucel (hydroxypropylcellulose) (HPC) 98 % of control | dose: 100.0 mg/kg/injection, schedule: Q01DX001 (ip), vehicle: Klucel (hydroxypropylcellulose) (HPC) 102 % of control | dose: 200.0 mg/kg/injection, schedule: Q01DX001 (ip), vehicle: Klucel (hydroxypropylcellulose) (HPC) 111 % of control

Cc1c2oc3c(C)ccc(C(=O)NC4C(=O)NC(C(C)C)C(=O)N5CCCC5C(=O)N(C)CC(=O)N(C)C(C(C)C)C(=O)OC4C)c3nc-2c(C(=O)NC2C(=O)NC(C(C)C)C(=O)N3CCC3C(=O)N(C)CC(=O)N(C)C(C(C)C)C(=O)OC2C)c(N)c1=O (configuration not stated) (I: TV[Aze][Sar][NMeV] / II: TVP[Sar][NMeV]; ester I:1-I:C, II:1-II:C; linker I:N-II:N via Actinocin(1to9); configuration not given here)
inactive: dose: 0.08 mg/kg/injection, schedule: Q04DX003 (ip), vehicle: saline 96 % of control | dose: 0.15 mg/kg/injection, schedule: Q04DX003 (ip), vehicle: saline 102 % of control | dose: 0.3 mg/kg/injection, schedule: Q04DX003 (ip), vehicle: saline 105 % of control | dose: 12.5 micrograms/kg/injection, schedule: Q01DX009 (ip), vehicle: saline 123 % of control | dose: 100.0 micrograms/kg/injection, schedule: Q01DX009 (ip), vehicle: water 89 % of control | dose: 250.0 micrograms/kg/injection, schedule: Q01DX009 (ip), vehicle: saline + alcohol 100 % of control | dose: 400.0 micrograms/kg/injection, schedule: Q01DX009 (ip), vehicle: saline 86 % of control
active: dose: 0.05 mg/kg/injection, schedule: Q01DX009 (ip), vehicle: water 214 % of control | dose: 12.5 micrograms/kg/injection, schedule: Q01DX009 (ip), vehicle: water 167 % of control | dose: 19.4 micrograms/kg/injection, schedule: Q01DX009 (ip), vehicle: saline + alcohol 150 % of control | dose: 25.0 micrograms/kg/injection, schedule: Q01DX009 (ip), vehicle: water 200 % of control | dose: 32.4 micrograms/kg/injection, schedule: Q01DX009 (ip), vehicle: saline + alcohol 165 % of control | dose: 50.0 micrograms/kg/injection, schedule: Q01DX009 (ip), vehicle: saline 155 % of control | dose: 50.0 micrograms/kg/injection, schedule: Q01DX009 (ip), vehicle: water 266 % of control | dose: 54.0 micrograms/kg/injection, schedule: Q01DX009 (ip), vehicle: saline + alcohol 177 % of control | dose: 90.0 micrograms/kg/injection, schedule: Q01DX009 (ip), vehicle: saline + alcohol 186 % of control | dose: 100.0 micrograms/kg/injection, schedule: Q01DX009 (ip), vehicle: saline 171 % of control | dose: 150.0 micrograms/kg/injection, schedule: Q01DX009 (ip), vehicle: saline + alcohol 238 % of control | dose: 200.0 micrograms/kg/injection, schedule: Q01DX009 (ip), vehicle: saline 250 % of control

N#CC(=N)C(C#N)=Nc1c(O)[nH]c2ccc(Br)cc12
inactive: dose: 50.0 mg/kg/injection, schedule: Q01DX009 (ip), vehicle: saline 100 % of control | dose: 100.0 mg/kg/injection, schedule: Q01DX009 (ip), vehicle: saline 94 % of control | dose: 200.0 mg/kg/injection, schedule: Q01DX009 (ip), vehicle: saline 91 % of control
